Measured values as given in patent US11014896B2, “TRPA1 and TRPV4 inhibitors and methods of using the same for organ-specific inflammation and itch” (Duke University, priority 2014, dated 2021).
“Also recorded” adds a separate entry of the source. Where a SMILES comes first, the peptide text is derived from it. [ ]: non-standard residue; d: D form.

Legend:
ET1 [1] = assay: ET1 secretion by non-stimulated 1° MK (ELISA); format: cell-based, mouse
ET1 [2] = assay: ET1 expression by UVB-exposed 1° MK (immunocytochemistry); format: cell-based, mouse; settings: cells preincubated with inhibitor
Procedure: 1° MK were exposed to UVB using the UV optical system (295 nm LED). 24 hours later the cells were fixed and fluorescently immunolabeled for ET1. Digital images were captured and subjected to morphometry.
Mouse keratinocytes were cultured on collagen coated quartz coverslips and then stimulated from the bottom using the previously mentioned UV optical system using the 295 nm LED. 24 hours later the cells were fixed in 4% formaldehyde in PBS for 20 minutes, permeabilized with 0.1% Triton X-100 in PBS for 10 minutes, washed, then blocked in 10% normal goat serum in PBS for 45 minutes. Coverslips were incubated overnight with primary antibody mouse anti-ET1 (1:200; Abcam), washed three times in PBS and incubated with secondary antibody for 2 hours at 25° C. Coverslips were washed three times in PBS, once with double-distilled H2O. Digital images were captured using a 40× immersion lens on the BX61 Olympus upright microscope. Morphometric analysis was conducted using ImageJ freeware with tailored regions-of-interest.

[3] = tested on: primary mouse keratinocytes (1° MK); assay: UVB-evoked Ca++ signaling in primary mouse keratinocytes (fluo-4 imaging); format: cell-based; settings: for UVB-evoked Ca++ signaling (ΔF/F0): GSK205 20 μM; for ET1-augmented, UVB-induced Ca++ transients: UVB and ET1 co-exposure
Procedure: Ca++ imaging of 1° MK was conducted following routine procedures. For UVB stimulation, a customized device was built. The system comprised a printed circuit board for electrical interconnects and mechanical support and an ultraviolet light-emitting diode (UV LED).
The operating wavelength was 295 nm (FIG. 2A), with a full-width half-max of 12 nm. The optical power was 500 mW. The focal point was aimed at the plane of the upper surface of the quartz coverslip, which was used to minimize UV absorption along the optical path towards the cells (FIG. 2A-FIG. 2C). The optical intensity at the focal point was estimated to be 150 mW/mm^2.
Ca++ imaging of mouse 1° MK in response to chemical activation of TRPV4 was conducted after loading with 2 μM fura2-AM, following a ratiometric Ca2+ imaging protocol with 340/380 nm […] for dual excitation. Ratios of emissions were acquired at 0.5 Hz. ΔR/R0 was determined as the fraction of the increase of a given ratio over baseline ratio, divided by baseline ratio. For stimulation of cells with UVB, where fura-2 was not suitable because of the proximity of stimulation with 340/380 nm and 295 nm, 2 μM fluo4-AM was used instead. Ca++ imaging was carried out at 488 nm excitation, acquisition of emissions at 0.5 Hz, expressed as ΔF/F0. In the custom-built UV optical system, UV LEDs were capped with a ball lens, a transparent optical window in the shape of a hemispherical lens (FIG. 2B). The LED output optical beam focused at 15-20 mm from the lens, with a spot diameter of approximately 1.5-2.0 mm (FIG. 2C). […] The thermal equilibration stage was set for physiological temperature.

TRPV4 = TRPV4 (Homo sapiens, UniProt Q9HBA0); assay: TRPV4-mediated calcium influx in N2a cells with targeted expression of human TRPV4; format: cell-based; set-up: expressed in transfected cells; host or cells: N2a cells; settings: 2.5 μM inhibitor, pre-incubation 10 min; TRPV4 activated with 10 nM GSK101
TRPV4, sequence (Q9HBA0 whole entry): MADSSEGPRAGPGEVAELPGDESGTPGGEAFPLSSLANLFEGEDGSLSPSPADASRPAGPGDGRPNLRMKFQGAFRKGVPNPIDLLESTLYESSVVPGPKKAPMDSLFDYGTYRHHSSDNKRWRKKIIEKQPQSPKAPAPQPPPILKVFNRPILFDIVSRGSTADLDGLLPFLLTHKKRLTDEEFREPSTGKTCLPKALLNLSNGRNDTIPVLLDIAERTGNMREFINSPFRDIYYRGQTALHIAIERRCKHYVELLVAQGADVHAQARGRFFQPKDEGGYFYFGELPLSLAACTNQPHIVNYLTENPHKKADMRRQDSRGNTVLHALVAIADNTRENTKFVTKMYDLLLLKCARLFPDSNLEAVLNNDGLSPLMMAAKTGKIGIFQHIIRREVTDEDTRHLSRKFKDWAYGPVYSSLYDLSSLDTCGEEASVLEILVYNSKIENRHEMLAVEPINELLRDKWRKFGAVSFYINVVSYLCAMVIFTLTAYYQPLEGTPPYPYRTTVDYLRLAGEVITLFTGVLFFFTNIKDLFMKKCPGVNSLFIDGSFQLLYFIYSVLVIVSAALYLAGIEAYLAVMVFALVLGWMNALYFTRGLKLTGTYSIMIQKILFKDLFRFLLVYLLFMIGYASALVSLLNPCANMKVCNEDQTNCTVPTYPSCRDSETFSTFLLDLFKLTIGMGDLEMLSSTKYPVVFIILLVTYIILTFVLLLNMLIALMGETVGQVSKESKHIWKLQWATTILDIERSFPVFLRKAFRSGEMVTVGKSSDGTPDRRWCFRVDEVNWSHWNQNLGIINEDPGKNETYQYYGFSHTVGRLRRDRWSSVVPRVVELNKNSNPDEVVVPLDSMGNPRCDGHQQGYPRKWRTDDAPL
Procedure: Compounds (GSK205, 16-12, 16-13, 16-14, 16-18, 16-8, and 16-8/18hy) were tested for their effect on TRPV4-mediated calcium influx in N2a cultured cells with targeted expression of human TRPV4. Ca2+ imaging was performed according to Li et al. (Environ. Health Perspect. 2011, 119, 784-93) and Moore et al. (Proc. Natl. Acad. Sci. U.S.A. 2013, 110, E3225-E3234). Briefly, Ca2+ imaging of primary mouse epidermal keratinocytes (1° MK) in response to chemical activation of TRPV4 was conducted after loading with 2 μM fura2-AM, following a ratiometric Ca2+-imaging protocol with 340/380 nm blue light for dual excitation. Ratios of emissions were acquired at 0.5 Hz. ΔR/R0 was determined as the fraction of the increase of a given ratio over baseline ratio, divided by baseline ratio. For stimulation of cells with UVB, where fura-2 was not suitable because of the proximity of stimulation with 340/380 nm vs. 295 nm, 2 μM fluo4-AM was used instead. Ca2+ imaging was carried out at 488 nm excitation, acquisition of emissions at 0.5 Hz, expressed as ΔF/F0. TRPV4 was activated with 10 nM GSK101, a specific activator, which had no effect on RFP-transfected cells. Each of the […] compounds were added to a concentration of 2.5 μM, and its effect was observed.

human TRPA1 = target: T1, human TRPA1 (Homo sapiens, UniProt O75762); assay: Ca2+ transient in N2a cells transfected with human TRPA1; format: cell-based; settings: 5 μM compound
T1 construct: expressed in transfected cells; host or cells: N2a cells, pcDNA3.1 plasmid, co-transfected with an eGFP plasmid
T1 sequence (O75762 whole entry): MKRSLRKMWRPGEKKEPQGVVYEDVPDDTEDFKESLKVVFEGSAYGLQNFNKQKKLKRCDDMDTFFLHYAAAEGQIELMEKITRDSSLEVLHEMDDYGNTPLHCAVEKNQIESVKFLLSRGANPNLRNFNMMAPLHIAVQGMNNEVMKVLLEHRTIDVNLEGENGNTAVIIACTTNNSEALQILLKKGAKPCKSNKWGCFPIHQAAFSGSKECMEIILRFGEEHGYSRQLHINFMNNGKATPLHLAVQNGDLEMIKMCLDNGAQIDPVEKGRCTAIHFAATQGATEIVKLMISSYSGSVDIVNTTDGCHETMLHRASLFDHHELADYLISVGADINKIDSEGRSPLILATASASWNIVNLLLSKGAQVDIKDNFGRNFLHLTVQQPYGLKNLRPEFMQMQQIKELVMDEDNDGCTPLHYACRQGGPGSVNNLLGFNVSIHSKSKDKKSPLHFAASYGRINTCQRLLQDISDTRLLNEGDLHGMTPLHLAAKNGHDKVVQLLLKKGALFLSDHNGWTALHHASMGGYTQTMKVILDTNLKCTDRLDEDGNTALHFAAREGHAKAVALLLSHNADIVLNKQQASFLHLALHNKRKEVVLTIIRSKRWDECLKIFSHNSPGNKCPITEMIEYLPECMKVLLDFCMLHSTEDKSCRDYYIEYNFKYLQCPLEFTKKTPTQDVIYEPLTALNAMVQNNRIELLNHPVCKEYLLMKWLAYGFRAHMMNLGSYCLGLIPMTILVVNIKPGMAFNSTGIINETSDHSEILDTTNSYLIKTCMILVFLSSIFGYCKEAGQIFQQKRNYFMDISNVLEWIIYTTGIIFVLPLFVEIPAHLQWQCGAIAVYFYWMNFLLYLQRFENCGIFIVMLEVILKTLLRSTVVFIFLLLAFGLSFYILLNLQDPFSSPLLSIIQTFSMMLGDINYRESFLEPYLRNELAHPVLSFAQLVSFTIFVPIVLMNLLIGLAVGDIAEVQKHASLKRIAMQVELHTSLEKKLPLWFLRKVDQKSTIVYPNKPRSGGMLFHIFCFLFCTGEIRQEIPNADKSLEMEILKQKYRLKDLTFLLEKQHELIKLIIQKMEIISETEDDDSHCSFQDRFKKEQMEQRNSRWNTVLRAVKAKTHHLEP
Procedure: Compounds were tested for their effect on TRPA1. N2a permanent cells were transfected with human TRPA1 cDNA, using a pcDNA3.1 expression plasmid. They were co-transfected with eGFP-expressing plasmid, or, for control, with eGFP plasmid only.

[4] = Formalin-evoked nocifensive (rubbing) behavior, whisker-pad injection, in vivo pain model in mice; set-up: species or system mouse
Procedure: Compounds were tested for their effect in reducing pain using an in vivo pain model in mice. For mouse formalin-evoked irritant behavior measurements, mice were well-fed, well-rested, and tested at the same time of day, at the same time-point of their circadian rhythm. They were allowed to acclimate to a plexiglas chamber for at least 30 min before testing, and received 10 μL subcutaneous injection of 4% of formalin (diluted from an aqueous solution of commercial 37% formaldehyde with normal saline (NS)) through a 30-gauge needle into the right whiskerpad, as further detailed in Luccarini et al. (J. Pain, 2006, 7, 908-914). Normal saline was used as control injection. After injection, mice were immediately placed back into the chamber and the rubbing behavior was recorded by a private consumer-type video-camera for a 45 min observation period. The recording time was divided into 9 blocks of 5 min, and a nociceptive score was determined per block by measuring the time that the animals spent rubbing the injected area predominantly with the ipsilateral fore-paw and rarely with hind-paw. This rubbing behavior with fore-paw is evoked by pain, which is distinct from itch behavior. Behavioral analysis was conducted by observers blinded to treatment.
To investigate the effects of the specific compounds GSK205, 16-8, and 16-8/18hy on formalin-induced nociceptive behavior, mice received a single subcutaneous injection of the compounds into the whiskerpad (10 μL, dissolved in 4% DMSO) 15 min before formalin injection. Control animals received the same volume of NS, 4% DMSO.

human TRPV1 = target: T2, human TRPV1 (Homo sapiens, UniProt Q8NER1); assay: Ca2+ signal in N2a cells transfected with human TRPV1; format: cell-based; settings: stimulation with 5 μM capsaicin
T2 construct: expressed in transfected cells; host or cells: N2a cells
T2 sequence (Q8NER1 whole entry): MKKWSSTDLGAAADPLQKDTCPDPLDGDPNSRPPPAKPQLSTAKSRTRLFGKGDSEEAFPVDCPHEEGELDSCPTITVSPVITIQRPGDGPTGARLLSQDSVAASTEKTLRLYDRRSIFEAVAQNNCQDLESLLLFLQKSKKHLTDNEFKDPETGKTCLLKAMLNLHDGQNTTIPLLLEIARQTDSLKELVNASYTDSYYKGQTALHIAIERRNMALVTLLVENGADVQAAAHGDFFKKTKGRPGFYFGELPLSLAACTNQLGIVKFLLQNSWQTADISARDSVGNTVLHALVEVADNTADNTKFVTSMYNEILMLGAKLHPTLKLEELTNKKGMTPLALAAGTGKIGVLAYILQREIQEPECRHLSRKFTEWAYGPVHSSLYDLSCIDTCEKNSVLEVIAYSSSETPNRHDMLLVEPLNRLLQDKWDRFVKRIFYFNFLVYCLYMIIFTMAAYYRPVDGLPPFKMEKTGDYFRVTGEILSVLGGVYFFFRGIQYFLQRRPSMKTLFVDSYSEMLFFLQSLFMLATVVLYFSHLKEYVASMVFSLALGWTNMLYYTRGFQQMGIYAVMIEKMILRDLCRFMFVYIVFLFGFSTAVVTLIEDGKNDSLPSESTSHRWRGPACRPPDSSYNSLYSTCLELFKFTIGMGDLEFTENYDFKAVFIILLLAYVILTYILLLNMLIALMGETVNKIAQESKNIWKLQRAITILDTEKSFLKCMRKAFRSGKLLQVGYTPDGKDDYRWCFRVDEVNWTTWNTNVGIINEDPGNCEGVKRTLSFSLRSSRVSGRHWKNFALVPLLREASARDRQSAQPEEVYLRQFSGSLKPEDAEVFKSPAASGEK
Procedure: (§1) Compounds were tested for their effect on TRPV1, TRPV2, and TRPV3. Methods were similar to those described in Example 15. Briefly, N2a cells were transfected with human TRPV1, TRPV2, or TRPV3. eGFP-transfection was used as control. For specific stimulation of TRPV1, 5 μM capsaicin was used. For stimulation of TRPV2, hypotonicity (260 mosmol/L) was used, based on previous reports of TRPV2 being osmotically responsive. N2a cells were not responsive to hypotonicity, and neither were control-transfected cells. For TRPV3-expressing cells, camphor (20% of a commercially available stock solution) was used. […] Stimulation and control protocols were applied as for TRPA1-expressing N2a cells as detailed above in Example 15.

human TRPV2 = target: T3, human TRPV2 (Homo sapiens, UniProt Q9Y5S1); assay: Ca2+ signal in N2a cells transfected with human TRPV2; format: cell-based; settings: stimulation with hypotonicity (260 mosmol/L)
T3 construct: expressed in transfected cells; host or cells: N2a cells
T3 sequence (Q9Y5S1 1-764): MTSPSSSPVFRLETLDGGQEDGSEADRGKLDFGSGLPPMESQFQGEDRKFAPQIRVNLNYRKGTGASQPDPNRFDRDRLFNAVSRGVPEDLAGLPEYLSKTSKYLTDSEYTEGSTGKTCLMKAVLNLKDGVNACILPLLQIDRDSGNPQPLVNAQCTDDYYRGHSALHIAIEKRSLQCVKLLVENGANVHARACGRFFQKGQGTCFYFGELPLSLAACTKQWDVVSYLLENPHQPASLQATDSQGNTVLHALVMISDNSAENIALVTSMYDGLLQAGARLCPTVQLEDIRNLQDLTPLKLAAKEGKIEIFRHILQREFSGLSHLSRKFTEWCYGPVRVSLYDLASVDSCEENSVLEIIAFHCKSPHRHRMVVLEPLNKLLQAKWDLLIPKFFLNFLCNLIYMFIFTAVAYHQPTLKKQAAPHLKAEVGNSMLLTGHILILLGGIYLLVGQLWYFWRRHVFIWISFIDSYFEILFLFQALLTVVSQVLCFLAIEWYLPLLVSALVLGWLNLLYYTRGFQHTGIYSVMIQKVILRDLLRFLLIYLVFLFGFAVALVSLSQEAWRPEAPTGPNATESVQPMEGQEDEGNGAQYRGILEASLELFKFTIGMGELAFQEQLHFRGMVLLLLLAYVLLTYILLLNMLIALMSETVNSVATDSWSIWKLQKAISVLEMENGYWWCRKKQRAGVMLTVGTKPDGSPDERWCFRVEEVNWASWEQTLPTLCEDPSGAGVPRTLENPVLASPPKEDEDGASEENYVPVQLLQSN
Procedure: as §1

human TRPV3 = target: T4, human TRPV3 (Homo sapiens, UniProt Q8NET8); assay: Ca2+ signal in N2a cells transfected with human TRPV3; format: cell-based; settings: stimulation with camphor
T4 construct: expressed in transfected cells; host or cells: N2a cells
T4 sequence (Q8NET8 1-790): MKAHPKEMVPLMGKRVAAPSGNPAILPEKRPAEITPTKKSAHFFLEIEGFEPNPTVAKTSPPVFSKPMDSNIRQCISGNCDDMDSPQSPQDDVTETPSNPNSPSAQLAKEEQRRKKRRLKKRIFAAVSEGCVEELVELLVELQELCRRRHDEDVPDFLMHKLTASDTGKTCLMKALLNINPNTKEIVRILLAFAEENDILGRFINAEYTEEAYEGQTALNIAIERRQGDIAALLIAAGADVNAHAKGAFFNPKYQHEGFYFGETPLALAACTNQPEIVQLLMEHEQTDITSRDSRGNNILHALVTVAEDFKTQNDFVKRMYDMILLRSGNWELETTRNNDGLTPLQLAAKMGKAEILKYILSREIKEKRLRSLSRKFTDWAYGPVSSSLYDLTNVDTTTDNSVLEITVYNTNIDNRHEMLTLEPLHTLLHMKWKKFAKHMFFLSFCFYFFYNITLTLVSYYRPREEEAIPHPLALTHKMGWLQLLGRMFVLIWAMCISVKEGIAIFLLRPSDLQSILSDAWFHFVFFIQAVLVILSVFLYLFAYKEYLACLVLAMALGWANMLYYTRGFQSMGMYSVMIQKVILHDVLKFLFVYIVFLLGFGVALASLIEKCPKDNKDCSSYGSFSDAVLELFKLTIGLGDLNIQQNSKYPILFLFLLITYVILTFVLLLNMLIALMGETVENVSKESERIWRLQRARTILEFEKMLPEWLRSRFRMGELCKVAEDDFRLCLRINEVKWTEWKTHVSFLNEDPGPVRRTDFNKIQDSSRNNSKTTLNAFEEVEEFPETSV
Procedure: as §1

With CC(C)NCCN(C(C)C)S(=O)(=O)c1ccc(Cl)cc1Cl [RN1734] the “ET1 secretion into supernatant (relative ET1 concentration)” value (ET1 [1]) was “significant down-regulation” and the ET1 immunoreactivity (ET1 [2]) was “diminished; also recorded: significant down-regulation”.
In the case of O=C(O)C(Cc1ccc2c(c1)oc1ccccc12)NCP(=O)(O)O (centres unmarked) [CGS35066], the “ET1 secretion into supernatant (relative ET1 concentration)” value (ET1 [1]) is reported as “down-regulation”, the “UVB-evoked Ca++ signaling (ΔF/F0)” value [3] is reported as “significantly diminished; also recorded: significant attenuation” and the ET1 immunoreactivity (ET1 [2]) is reported as “significant down-regulation”.
For CCN(CCc1ccc(Nc2nc(-c3cccnc3)cs2)cc1)Cc1ccccc1 [Compound 16-18], the “inhibition of TRPV4-mediated calcium influx (peak calcium concentration in the cells)” value (TRPV4) was “most potent”.
With CCN(CCc1ccc(Nc2nc(-c3ccccc3)cs2)cc1)Cc1ccccc1 [Compound 16-8/18hy] the “inhibitory activity against human TRPA1” value (human TRPA1) was “inhibitory activity”, the “formalin-induced nocifensive behavior at the 45-min time-point” value ([4]; 0.5 mM/10 μL, 45-min time-point) was “reversal to control levels” and the “formalin-induced nocifensive behavior, time course” value ([4]; 0.5 mM/10 μL, FIG. 21D) was “significantly attenuated nocifensive behavior”. For the same molecule, the “formalin-induced nocifensive behavior, quantitation, in particular second phase” value ([4]; compounds pre-injected at 0.5 mM/10 μL into whiskerpad 15 min before 4% formalin) was “significant attenuation of nocifensive behavior”, the “Ca2+ transience on TRPV1 stimulation” value (human TRPV1) was “not affected” and the “Ca2+ transience on TRPV2 stimulation” value (human TRPV2) was “not affected”. The “Ca2+ transience on TRPV3 stimulation” value (human TRPV3) was “not affected” and the “inhibition of TRPV4-mediated calcium influx (peak calcium concentration in the cells)” value (TRPV4) was “did not show enhanced inhibition over 16-8”.
In the case of CCCC[C@@H](NC(=O)[C@@H](Cc1cn(C(=O)OC)c2ccccc12)NC(=O)[C@H](CC(C)(C)C)NC(=O)N1[C@H](C)CCC[C@@H]1C)C(=O)O [BQ788], the “ET1-augmented, UVB-induced Ca++ transients” value [3] is reported as “attenuated”.
For COc1ccc2c(c1)CC[C@@H]1[C@@H]2CC[C@]2(C)[C@@H](NCCCCCCN3C(=O)C=CC3=O)CC[C@@H]12 [Compound U73122], the “ET1 secretion into supernatant (relative ET1 concentration)” value (ET1 [1]) was “down-regulation”, the “UVB-evoked Ca++ signaling (ΔF/F0)” value [3] was “virtually eliminated; also recorded: strongly reduced” and the ET1 immunoreactivity (ET1 [2]) was “dampened ET1 expression; also recorded: significant down-regulation”.
For C=C(C)CCO[P@@](=O)(O)OP(=O)(O)O [IPP, isopentenyl pyrophosphate], the “UVB-evoked Ca++ signaling (ΔF/F0)” value [3] was “no effect; also recorded: not inhibited”.
With CC(C)C[C@@H]1NC(=O)[C@@H](C(C)C)NC(=O)[C@@H]2CCCN2C(=O)[C@@H](CC(=O)O)NC(=O)[C@@H](Cc2c[nH]c3ccccc23)NC1=O [BQ123] (cyclo(L[dW][dD]P[dV])) the “ET1-augmented, UVB-induced Ca++ transients” value [3] was “attenuated”.
